# Tests used:
# [1] = test system: MCF-7 cells; assay: Clonogenic assay, MCF-7 cells; format: cell-based, human; settings: Homo sapiens, MCF7, 24 h drug, calphostin C light-activated 2 h, read-out: IC50 (concentration required to kill or inhibit the growth of 50% of cells)
# Experimental: (§1) The breast cancer cell line MCF-7 (lot HTB-22) was obtained from the American […] (ATCC) and maintained in Dulbecco's H21 medium (MEM) supplemented with 10% Fetal Bovine Serum (FBS) (HyClone, Logan, Utah) in a humidified atmosphere containing 5% CO2 at 37° C. To establish drug resistant cell lines, MCF-7 cells were grown in the presence of either paclitaxel or doxorubicin, beginning at a concentration 1000-fold below that required to kill 50% of the cells (the IC50). The drug concentration was increased 3-fold every two weeks (two passages), with an aliquot of the cells removed for storage in liquid nitrogen before each increase in concentration. Dose escalation continued until all cells died, after which the cells able to tolerate the highest concentration of drug were thawed for subsequent study. In this way, paclitaxel-resistant (MCF-7TAX) and doxorubicin-resistant (MCF-7DOX) cell lines were established. The IC50 for each drug was determined using a clonogenic assay as outlined below. The drug resistant cells were kept in culture in the presence of the maximally tolerated drug dose. Before each experiment, the cell lines were grown for two days in the absence of drug after which fresh medium containing either calphostin C (Sigma Laboratories, Oakville, ON), doxorubicin (Adriamycin PFS®, USP, Mississauga, ON) or paclitaxel (Taxol, Bristol-Myers Squibb, Montreal, QC) was added at the concentrations indicated.
# (§2) The sensitivity of MCF-7, MCF-7TAX and MCF-7DOX cells to calphostin C, paclitaxel or doxorubicin was determined using a clonogenic assay. Briefly, 2.5×10^5 cells were seeded into 25 cm^2 tissue culture flasks in Dulbecco's H21 medium supplemented with 10% FBS. The cells were allowed to grow overnight, after which the medium was removed and replaced with medium containing varying concentrations of paclitaxel, doxorubicin, or calphostin C (after 2 hours of light exposure to activate the molecule). […] The colonies present in 5 randomly selected fields were then counted by visual inspection. […]
# [2] = test system: MCF-7TAX cells; assay: Drug uptake, MCF-7TAX; format: cell-based, human; settings: 2 μM doxorubicin or [3H]-paclitaxel
# Experimental: (§3) FIG. 5 illustrates the effect of calphostin C (Cal-C) on drug uptake in MCF-7 (square symbols), MCF-7TAX (diamond symbols) and MCF-7DOX (triangular symbols) cells. After one-day growth, the cells were left untreated (closed symbols) or treated with 100 nM calphostin C for 2 h with light activation (open symbols). Cells were then washed and the medium replaced with medium containing 2 μM of doxorubicin (A) or [^3H]-paclitaxel (B). The cells were then trypsinized and drug accumulation measured by flow cytometry (A) or liquid scintillation counting (B) at indicated time points. The figures are representative of three independent experiments.
# [3] = test system: MCF-7DOX (doxorubicin-resistant) cells; assay: Clonogenic assay, MCF-7DOX cells; format: cell-based, human; settings: for fold resistance / lower sensitivity compared to MCF-7 cells: MCF-7DOX vs MCF-7
# Experimental: as §1
# The sensitivity of MCF-7, MCF-7TAX and MCF-7DOX cells to calphostin C, paclitaxel or doxorubicin was determined using a clonogenic assay. Briefly, 2.5×10^5 cells were seeded into 25 cm^2 tissue culture flasks in Dulbecco's H21 medium supplemented with 10% FBS. The cells were allowed to grow overnight, after which the medium was removed and replaced with medium containing varying concentrations of paclitaxel, doxorubicin, or calphostin C (after 2 hours of light exposure to activate the molecule). After 24 hours, the medium (including any floating cells) was transferred to 14 ml screw-capped tubes and centrifuged at 1000 rpm for 10 min. The adherent cells were then released from their flasks by trypsin treatment and suspended in 10 ml of H21 medium. The cell suspension was transferred to the previous tube and all cells harvested by centrifugation. The cell pellet was washed one more time with drug-free medium and resuspended in 300 μl of normal growth medium containing FBS. The cells were then added to 2.7 ml of a methylcellulose solution. The methylcellulose medium was prepared by combining 70 ml of a 2.6% (w/v) methylcellulose solution [Shin-Etsu Chemical Co., Tokyo, Japan] in Iscove's medium (Princess Margaret Hospital, Toronto, ON) with 30 ml of FBS. Three ml syringes equipped with a 16-gauge needle were used for transferring the viscous medium. The mixture was vigorously vortexed for 10 s to ensure an even distribution of cells within the viscous medium. The vortexed samples were then allowed to sit for 30 min to remove air bubbles. A 1.2 ml aliquot of the cell suspension was then transferred to a 6-well plate and the cells allowed to grow until colonies of >50 cells were visible by light microscopy for the various cell lines in the absence of drug. The colonies present in 5 randomly selected fields were then counted by visual inspection.
# Calphostin C (Sigma Laboratories, Oakville, ON) was prepared as a 100 μM stock solution in dimethylsulfoxide (Sigma Laboratories, Oakville, ON) and stored at −70° C. in 100 μl aliquots. […]
# [4] = test system: MCF-7DOX cells; assay: Microscopic cell morphology, MCF-7DOX; format: cell-based, human; settings: 2 μM doxorubicin, 24 h
# Experimental: (§4) For microscopic observation, cells were seeded onto standard glass coverslips in 10 cm tissue culture plates with 10 ml of H21 medium and grown for 2 days until 40-50% confluence was obtained. After treatment with paclitaxel, doxorubicin or calphostin C, the cells on the glass coverslips were washed twice with PBS (2.7 mM KCl, 1.0 mM KH2PO4, 137 mM NaCl, 10 mM Na2HPO4, pH 7.4) and stained with acridine orange/ethidium bromide (each at 4 μg/ml in PBS) for 10 min at 37° C.. The coverslips were then washed three times in PBS and mounted onto standard glass slides for morphological evaluation. For propidium iodide (PI) staining, the cells on coverslips were washed twice with PBS and fixed in methanol (cooled to −20° C.) for 20 min. Thirty μl of propidium iodide (PI) staining solution (100 μg/ml PI, 0.1% sodium citrate, 100 μg/ml RNase A and 0.3% Nonidet P-40) were then applied to the coverslips for 5 min. […] The cells were then examined using a Zeiss Axiovert 100 inverted fluorescence microscope. […] For each sample, the number of dead cells was determined by visualization after ethidium bromide staining, whereby only dead cells which have lost membrane integrity allow entry of cell-impermeable ethidium bromide into cells to complex with DNA and induce bright red fluorescence. […] The images were recorded and overlayed using Northern Eclipse software (Empix Imaging Inc., Mississauga, ON).
# [5] = test system: MCF-7DOX cells; assay: Drug uptake, MCF-7DOX; format: cell-based, human; settings: 2 μM doxorubicin or [3H]-paclitaxel
# Experimental: as §3
# [6] = test system: MCF-7 cells; assay: Flow cytometric sub-G1 DNA content, MCF-7; format: cell-based, human; settings: 10 nM paclitaxel or 2 μM doxorubicin
# Experimental: For flow cytometric analysis, cells at about 50% to 60% confluence were released from their flasks by trypsin treatment and washed with PBS. After centrifugation at 1000 rpm for 5 min, cells were then fixed by resuspension in 75% ethanol for 2 hours, collected by centrifugation, and resuspended in PI staining solution (see above) for 1 h. For each sample, approximately 2×10^4 cells were analyzed using a Beckman Coulter Epics® Elite flow cytometer. Fluorescence intensity upon stimulation with an argon-ion laser at 488 nm was measured using the PMT4 channel (625DL filter) and plotted against cell number. The percentage of cells with a sub-G1 DNA content was determined by the flow cytometer, adjusting the gates such that only cells with a fluorescence lower than the peak for untreated cells in G1 are counted (see FIG. 4).
# [7] = test system: caspase-8 and PARP in Jurkat cells; assay: Immunoblotting of apoptosis markers, Jurkat (positive control); format: cell-based; settings: 3 μg/ml etoposide, 24 hours
# Experimental: FIG. 9 illustrates the effect of calphostin C on caspase 8 cleavage, PARP cleavage, and cytochrome C release in MCF-7, MCF-7FDOX, and MCF-7TAX cells. The MCF-7, MCF-7FDOX, and MCF-7TAX cell lines were incubated with (+) or without (−) 100 nM calphostin C, after which whole cell extracts were monitored for caspase-8 and cytochrome C levels by immunoblotting as described in Materials and Methods. A similar experiment was also performed, except that mitochondrial (M) and cytosolic (C) fractions were prepared as described in Materials and Methods to monitor by immunoblotting the release of cytochrome C from mitochondria into the cytosol in response to calphostin C. As positive controls, similar experiments were conducted using Jurkat cells, with (+) or without (−) the addition of 3 μg/ml etoposide for 24 hours.
# Extraction of proteins from whole cells was performed using RIPA buffer (1% NP40, 0.5% sodium deoxycholate, 0.1% SDS, 1 Complete™ protease inhibitor tablet in 50 ml of PBS). Prior to use, the RIPA buffer (50 ml) was supplemented with 500 μl each of both 100 mM sodium orthovanadate and 10 mg/ml phenylmethylsulfonyl fluoride. Cultured cells were grown as a monolayer and allowed to reach 70-90% confluence in 10 cm tissue culture plates. […]
# [8] = test system: MCF-7TAX cells; assay: Microscopic cell morphology, MCF-7TAX; format: cell-based, human; settings: 10 nM paclitaxel, 24 h
# Experimental: as §4
# [9] = test system: MCF-7 cells; assay: Microscopic cell morphology (bright field, AO/EB, PI), MCF-7; format: cell-based, human; settings: 10 nM paclitaxel, 24 hours, PI staining
# Experimental: as §4
# [10] = test system: MCF-7TAX (paclitaxel-resistant) cells; assay: Clonogenic assay, MCF-7TAX cells; format: cell-based, human
# Experimental: as §1, §2
compound,measurement,setting,value
COc1cccc2c1C(=O)c1c(O)c3c(c(O)c1C2=O)C[C@@](O)(C(=O)CO)C[C@@H]3O[C@H]1C[C@H](N)[C@H](O)[C@H](C)O1 [doxorubicin],IC50,[1],10 nM
same,drug uptake compared to MCF-7 cells,[2],dramatically lower
same,IC50,"[3]; Homo sapiens, MCF7-DOX, MCF-7DOX cells, 24 h drug, calphostin C light-activated 2 h",600 nM
same,fold resistance / lower sensitivity compared to MCF-7 cells,[3],60 fold
same,change in morphology over untreated cells,[4],no change in morphology
same,drug uptake compared to MCF-7 cells,[5],dramatically lower
same,time of large increase in number of cells with sub-G1 DNA content after drug administration,[6],approximately 24 hours
COc1cc([C@@H]2c3cc4c(cc3[C@@H](O[C@@H]3O[C@@H]5CO[C@@H](C)O[C@H]5[C@H](O)[C@H]3O)[C@H]3COC(=O)[C@H]23)OCO4)cc(OC)c1O [etoposide],caspase-8 and PARP cleavage,[7],could induce caspase-8 and PARP cleavage
CC(=O)O[C@H]1C(=O)[C@@]2(C)[C@H]([C@H](OC(=O)c3ccccc3)[C@]3(O)C[C@H](OC(=O)[C@H](O)[C@@H](NC(=O)c4ccccc4)c4ccccc4)C(C)=C1C3(C)C)[C@]1(OC(C)=O)CO[C@@H]1C[C@@H]2O [paclitaxel],IC50,[1],0.5 nM
same,change in morphology over untreated cells,[8],no change in morphology
same,drug uptake compared to MCF-7 cells,[2],dramatically lower
same,fold resistance / lower sensitivity compared to MCF-7 cells,[3],approximately 4000 fold
same,drug uptake compared to MCF-7 cells,[5],dramatically lower
same,percentage of adherent cells multinucleated,[9],over 60%
same,IC50,"[10]; Homo sapiens, MCF-7TAX cells, 24 h drug, calphostin C light-activated 2 h",27 nM
same,fold higher IC50 than for MCF-7 cells,[10]; MCF-7TAX vs MCF-7,54 fold
same,time of large increase in number of cells with sub-G1 DNA content after drug administration,[6],approximately 24 hours
